Where two headings read alike, the source gives them in different places.
Assays:
PI3 Kgamma (PI3 Kg) = biological target: T1, PI3 Kgamma (PI3 Kg) (Homo sapiens, UniProt P48736); assay: kinobeads assay, PI3Kgamma; type: binding; conditions: kinobeads assay, Table 6; read-out: Inhibition values (IC50) PI3Kg
T1 construct: endogenous in cells; host or cells: cell lysate
Method: (§1) The kinobeads assay was performed as a competitive binding assay in which test compounds were added directly into a cell lysate. Test compounds (at various concentrations) and the affinity matrix (beads with immobilized phenylmorpholin-chromen ligand) were added to cell lysate aliquots and allowed to bind to the proteins contained in the lysate sample. After the incubation time the beads with captured proteins were separated from the lysate. Bound proteins were then eluted and the presence of kinases was detected and quantified using a multiplexed immunodetection format. Dose response curves for individual kinases were generated and IC50 values calculated.
(§2) The effect of the compounds on the kinases PI3Kalpha (PI3Ka), PI3 Kbeta (PI3 Kb) and PI3 Kgamma (PI3 Kg) were tested in the kinobeads assay as described (WO-A 2009/098021).

PI3K delta (PI3 Kd) = biological target: T2, PI3K delta (PI3 Kd) (Homo sapiens, UniProt O00329); assay: kinobeads assay, PI3K delta; type: binding; conditions: kinobeads assay, read-out: Inhibition values (IC50) PI3Kd
T2 construct: endogenous in cells; host or cells: Jurkat, clone E6-1 (ATCC TIB-152) cell lysate
Method: (§3) The compounds of the present invention as described were tested in the mTOR kinobeads assay as described below. Briefly, test compounds (at various concentrations) and the affinity matrix with the immobilized phenylmorpholin-chromen ligand (8-(4-aminomethyl-phenyl)-2-morpholin-4-yl-chromen-4-one) were added to cell lysate aliquots and allowed to bind to the proteins in the lysate sample. After the incubation time the beads with captured proteins were separated from the lysate. Bound proteins were then eluted and the presence of mTOR, PI3K delta (PI3 Kd) and DNA-dependent protein kinase (DNA-PK) was detected and quantified using a specific antibody in a dot blot procedure and the Odyssey infrared detection system. Kinobeads assays for PI3K (WO-A 2008/015013) and for kinase selectivity profiling (WO 2006/134056) have been previously described.
as §1
(§4) The affinity matrix (beads with immobilized phenylmorpholin-chromen ligand) was washed two times with 15 ml of 1×DP buffer containing 0.2% NP40 (IGEPAL® CA-630, Sigma, #13021) and then resupended in 5.5 ml of 1×DP buffer containing 0.2% NP40 (10% beads slurry).
(§5) 5×DP buffer: 250 mM Tris-HCl pH 7.4, 25% Glycerol, 7.5 mM MgCl2, 750 mM NaCl, 5 mM Na3VO4, filter the 5×-lysis buffer through 0.22 μm filter and store in aliquots at −80° C. The 5×DP buffer is diluted to 1×DP buffer containing 1 mM DTT and 25 mM NaF.
(§6) Stock solutions of test compounds were prepared in DMSO. In a 96 well plate 30 μl solution of diluted test compounds at 5 mM in DMSO were prepared. Starting with this solution a 1:3 dilution series (9 steps) was prepared. For control experiments (no test compound) a buffer containing 2% DMSO was used. Compound CZC00018052 served as a positive control (PI-103; Calbiochem catalogue number 528100).
(§7) Jurkat cells (ATCC catalogue number TIB-152 Jurkat, clone E6-1) were grown in 1 liter Spinner flasks (Integra Biosciences, #182101) in suspension in RPMI 1640 medium (Invitrogen, #21875-034) supplemented with 10% Fetal Bovine Serum (Invitrogen) at a density between 0.15×10^6 and 1.2×10^6 cells/ml. Cells were harvested by centrifugation, washed once with 1×PBS buffer (Invitrogen, #14190-094) and cell pellets were frozen in liquid nitrogen and subsequently stored at −80° C.
(§8) Jurkat cells were homogenized in a Potter S homogenizer in lysis buffer: 50 mM Tris-HCl, 0.8% NP40, 5% glycerol, 150 mM NaCl, 1.5 mM MgCl2, 25 mM NaF, 1 mM sodium vanadate, 1 mM DTT, pH 7.5. One complete EDTA-free tablet (protease inhibitor cocktail, Roche Diagnostics, 1873580) per 25 ml buffer was added. The material was dounced 10 times using a mechanized POTTER S, transferred to 50 ml falcon tubes, incubated for 30 minutes on ice and spun down for 10 min at 20,000 g at 4° C. (10,000 rpm in Sorvall SLA600, precooled). The supernatant was transferred to an ultracentrifuge (UZ)-polycarbonate tube (Beckmann, 355654) and spun for 1 hour at 100.000 g at 4° C. (33.500 rpm in Ti50.2, precooled). The supernatant was transferred again to a fresh 50 ml falcon tube, the protein concentration was determined by a Bradford assay (BioRad) and samples containing 50 mg of protein per aliquot were prepared. The samples were immediately used for experiments or frozen in liquid nitrogen and stored frozen at −80° C. […]

PI3Kalpha (PI3Ka) = biological target: T3, PI3Kalpha (PI3Ka) (Homo sapiens, UniProt P42336); assay: kinobeads assay, PI3Kalpha; type: binding; conditions: kinobeads assay, Table 6
T3 construct: endogenous in cells; host or cells: cell lysate
Method: as §1, §2

mTOR = biological target: T4, mTOR (Homo sapiens, UniProt P42345); assay: mTOR kinobeads assay (competitive binding in Jurkat cell lysate, immunodetection); conditions: kinobeads assay
T4 construct: endogenous in cells; host or cells: Jurkat, clone E6-1 (ATCC TIB-152) cell lysate
Method: The compounds of the present invention as described were tested in the mTOR kinobeads assay as described below. […] After the incubation time the beads with captured proteins were separated from the lysate. Bound proteins were then eluted and the presence of mTOR, PI3K delta (PI3 Kd) and DNA-dependent protein kinase (DNA-PK) was detected and quantified using a specific antibody in a dot blot procedure and the Odyssey infrared detection system.
as §1, §5
as §6, with “used.” for “used. Compound CZC00018052 served as a positive control (PI-103; Calbiochem catalogue number 528100).”
Jurkat cells were homogenized in a Potter S homogenizer in lysis buffer: 50 mM Tris-HCl, 0.8% NP40, 5% glycerol, 150 mM NaCl, 1.5 mM MgCl2, 25 mM NaF, 1 mM sodium vanadate, 1 mM DTT, pH 7.5. […] The material was dounced 10 times using a mechanized POTTER S, transferred to 50 ml falcon tubes, incubated for 30 minutes on ice and spun down for 10 min at 20,000 g at 4° C. (10,000 rpm in Sorvall SLA600, precooled). […] (33.500 rpm in Ti50.2, precooled). The supernatant was transferred again to a fresh 50 ml falcon tube, the protein concentration was determined by a Bradford assay (BioRad) and samples containing 50 mg of protein per aliquot were prepared. The samples were immediately used for experiments or frozen in liquid nitrogen and stored frozen at −80° C.
Jurkat cell lysate (approximately 50 mg protein per plate) was thawed in a water bath at room temperature and then kept on ice. […] The diluted cell lysate was stored on ice.
Plates were sealed and incubated for two hours in a cold room on a Thermoxer with shaking (750 rpm). Afterwards the plate was washed twice with 230 μl washing buffer (1×DP 0.4% NP40). […] The eluate was frozen quickly at −80° C. and stored at −20° C.
The kinases in the eluates were detected and quantified by spotting on Nitrocellulose membranes and using a first antibody directed against the kinase of interest and a fluorescently labeled secondary antibody (anti-mouse or anti-rabbit IRDye™ antibodies from Rockland).
Afterwards the membrane was washed three times for 10 minutes with PBS buffer containing 0.1% Tween 20 at room temperature. […] Afterwards the membrane was washed three times for 10 minutes each with 1×PBS buffer containing 0.1% Tween 20 at room temperature. Then the membrane was rinsed once with PBS buffer to remove residual Tween 20. The membrane was kept in PBS buffer at 4° C. and then scanned with the Odyssey instrument. Fluorescence signals were recorded and analysed according to the instructions of the manufacturer.

[1] = biological target: T5, DNA-dependent protein kinase (DNA-PK) (Homo sapiens, UniProt P78527); assay: kinobeads assay, DNA-PK; type: binding; conditions: kinobeads assay
T5 construct: endogenous in cells; host or cells: Jurkat, clone E6-1 (ATCC TIB-152) cell lysate
T5 sequence (P78527 whole entry): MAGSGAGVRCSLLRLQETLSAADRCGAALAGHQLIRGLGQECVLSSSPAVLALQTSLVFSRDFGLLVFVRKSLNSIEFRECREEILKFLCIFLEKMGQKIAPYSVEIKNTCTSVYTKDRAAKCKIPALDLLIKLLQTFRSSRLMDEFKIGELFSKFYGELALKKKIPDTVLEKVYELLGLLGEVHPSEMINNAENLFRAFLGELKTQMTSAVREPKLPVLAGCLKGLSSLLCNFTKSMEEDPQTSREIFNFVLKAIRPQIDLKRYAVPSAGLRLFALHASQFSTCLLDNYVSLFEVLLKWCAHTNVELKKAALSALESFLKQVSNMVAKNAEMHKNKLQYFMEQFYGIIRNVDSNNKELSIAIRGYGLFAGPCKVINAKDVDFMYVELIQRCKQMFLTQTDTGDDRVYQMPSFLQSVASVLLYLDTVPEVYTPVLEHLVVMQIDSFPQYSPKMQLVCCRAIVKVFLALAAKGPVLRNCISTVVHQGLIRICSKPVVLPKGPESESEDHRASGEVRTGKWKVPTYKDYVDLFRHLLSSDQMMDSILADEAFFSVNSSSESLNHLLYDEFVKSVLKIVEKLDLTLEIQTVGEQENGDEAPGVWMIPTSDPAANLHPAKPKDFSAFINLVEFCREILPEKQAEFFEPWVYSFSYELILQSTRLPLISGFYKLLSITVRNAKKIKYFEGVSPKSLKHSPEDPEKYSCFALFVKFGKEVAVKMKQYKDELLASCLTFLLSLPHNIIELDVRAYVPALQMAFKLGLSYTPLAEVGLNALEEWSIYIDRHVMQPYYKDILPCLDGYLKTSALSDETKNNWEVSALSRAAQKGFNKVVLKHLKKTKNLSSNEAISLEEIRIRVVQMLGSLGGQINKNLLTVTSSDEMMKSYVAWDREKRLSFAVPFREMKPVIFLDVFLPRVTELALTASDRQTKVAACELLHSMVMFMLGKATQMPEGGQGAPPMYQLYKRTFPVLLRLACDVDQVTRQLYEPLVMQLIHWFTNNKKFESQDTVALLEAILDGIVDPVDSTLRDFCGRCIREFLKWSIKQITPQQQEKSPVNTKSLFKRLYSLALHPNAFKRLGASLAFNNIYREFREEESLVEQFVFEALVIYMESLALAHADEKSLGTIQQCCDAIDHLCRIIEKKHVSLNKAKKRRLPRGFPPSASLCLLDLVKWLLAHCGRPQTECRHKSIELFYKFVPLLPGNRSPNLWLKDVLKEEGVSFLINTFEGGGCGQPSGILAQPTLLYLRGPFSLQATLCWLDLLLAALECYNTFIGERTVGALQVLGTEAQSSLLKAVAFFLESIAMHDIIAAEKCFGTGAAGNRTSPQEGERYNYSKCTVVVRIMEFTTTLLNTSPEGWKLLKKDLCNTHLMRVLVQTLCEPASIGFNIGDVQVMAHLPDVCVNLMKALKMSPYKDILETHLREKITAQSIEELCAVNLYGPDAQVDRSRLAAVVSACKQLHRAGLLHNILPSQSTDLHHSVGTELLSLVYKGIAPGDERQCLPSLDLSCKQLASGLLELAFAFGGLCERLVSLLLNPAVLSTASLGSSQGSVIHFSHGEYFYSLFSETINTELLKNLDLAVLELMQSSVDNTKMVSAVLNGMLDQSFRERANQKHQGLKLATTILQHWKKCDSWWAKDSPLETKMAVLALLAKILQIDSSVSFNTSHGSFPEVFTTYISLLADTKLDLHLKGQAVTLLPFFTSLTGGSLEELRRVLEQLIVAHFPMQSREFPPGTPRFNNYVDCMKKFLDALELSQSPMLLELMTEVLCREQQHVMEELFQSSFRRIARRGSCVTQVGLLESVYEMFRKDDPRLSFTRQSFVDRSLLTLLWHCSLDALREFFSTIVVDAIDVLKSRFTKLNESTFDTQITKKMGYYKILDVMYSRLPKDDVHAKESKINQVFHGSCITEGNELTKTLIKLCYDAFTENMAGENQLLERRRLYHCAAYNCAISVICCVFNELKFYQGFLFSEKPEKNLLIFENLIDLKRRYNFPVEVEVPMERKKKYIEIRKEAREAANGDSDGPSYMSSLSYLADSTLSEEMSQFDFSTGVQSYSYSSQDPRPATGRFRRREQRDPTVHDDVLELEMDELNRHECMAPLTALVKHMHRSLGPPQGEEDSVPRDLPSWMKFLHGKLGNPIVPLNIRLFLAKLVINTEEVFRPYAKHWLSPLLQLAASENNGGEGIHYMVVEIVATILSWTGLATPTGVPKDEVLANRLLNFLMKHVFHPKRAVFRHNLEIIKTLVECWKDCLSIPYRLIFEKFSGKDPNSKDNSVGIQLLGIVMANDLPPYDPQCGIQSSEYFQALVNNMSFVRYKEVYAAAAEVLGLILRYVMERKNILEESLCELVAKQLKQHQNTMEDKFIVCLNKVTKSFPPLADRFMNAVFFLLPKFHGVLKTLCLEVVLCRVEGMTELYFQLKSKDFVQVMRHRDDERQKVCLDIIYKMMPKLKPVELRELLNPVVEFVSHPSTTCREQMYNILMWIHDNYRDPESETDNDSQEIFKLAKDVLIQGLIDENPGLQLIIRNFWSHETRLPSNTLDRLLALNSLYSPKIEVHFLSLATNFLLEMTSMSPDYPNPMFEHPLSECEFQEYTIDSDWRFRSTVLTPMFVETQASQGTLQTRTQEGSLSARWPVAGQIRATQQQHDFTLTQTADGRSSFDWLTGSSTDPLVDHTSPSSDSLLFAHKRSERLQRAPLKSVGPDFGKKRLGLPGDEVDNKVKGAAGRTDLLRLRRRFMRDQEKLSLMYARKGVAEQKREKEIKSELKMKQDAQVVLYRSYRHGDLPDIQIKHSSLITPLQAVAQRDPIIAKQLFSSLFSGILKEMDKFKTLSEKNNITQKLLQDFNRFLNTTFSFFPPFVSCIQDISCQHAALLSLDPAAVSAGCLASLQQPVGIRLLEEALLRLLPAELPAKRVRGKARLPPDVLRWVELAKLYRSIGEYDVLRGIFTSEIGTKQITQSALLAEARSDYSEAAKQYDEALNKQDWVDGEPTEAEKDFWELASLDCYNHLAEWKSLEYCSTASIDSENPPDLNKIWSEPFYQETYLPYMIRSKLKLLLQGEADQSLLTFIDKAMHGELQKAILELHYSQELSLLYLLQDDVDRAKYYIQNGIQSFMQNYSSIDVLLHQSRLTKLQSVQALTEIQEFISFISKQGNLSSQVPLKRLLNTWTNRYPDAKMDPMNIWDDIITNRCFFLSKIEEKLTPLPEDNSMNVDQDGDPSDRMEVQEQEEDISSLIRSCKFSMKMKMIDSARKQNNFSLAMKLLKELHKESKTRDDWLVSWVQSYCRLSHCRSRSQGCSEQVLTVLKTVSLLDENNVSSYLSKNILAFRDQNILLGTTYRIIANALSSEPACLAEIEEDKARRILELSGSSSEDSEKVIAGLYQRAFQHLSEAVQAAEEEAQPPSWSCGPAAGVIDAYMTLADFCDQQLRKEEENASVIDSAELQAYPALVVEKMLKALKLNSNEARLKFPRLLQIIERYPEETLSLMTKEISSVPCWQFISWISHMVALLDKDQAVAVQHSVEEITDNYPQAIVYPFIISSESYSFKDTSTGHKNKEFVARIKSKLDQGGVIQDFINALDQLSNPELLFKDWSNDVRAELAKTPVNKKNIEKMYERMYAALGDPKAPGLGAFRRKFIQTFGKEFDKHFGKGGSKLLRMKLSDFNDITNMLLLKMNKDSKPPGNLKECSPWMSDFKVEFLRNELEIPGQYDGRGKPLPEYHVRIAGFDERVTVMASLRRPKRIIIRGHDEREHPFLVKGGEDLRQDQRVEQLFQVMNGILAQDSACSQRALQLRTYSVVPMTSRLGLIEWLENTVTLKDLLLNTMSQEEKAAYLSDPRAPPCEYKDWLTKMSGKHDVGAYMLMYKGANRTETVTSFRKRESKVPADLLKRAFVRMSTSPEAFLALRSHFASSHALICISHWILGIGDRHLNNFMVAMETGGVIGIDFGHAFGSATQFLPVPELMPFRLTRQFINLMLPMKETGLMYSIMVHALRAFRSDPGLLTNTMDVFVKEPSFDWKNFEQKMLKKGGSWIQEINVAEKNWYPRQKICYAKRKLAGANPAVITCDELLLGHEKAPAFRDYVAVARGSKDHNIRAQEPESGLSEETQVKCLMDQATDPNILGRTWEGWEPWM
Method: as §3, §1, §4, §5, §6, §7, §8

[2] = Table 6, read-out: Inhibition values (IC50) mTOR
[3] = Table 4, read-out: Inhibition values (IC50) DNA-PK
[4] = Table 6, read-out: Inhibition values (IC50) DNAPK
[5] = Table 4, read-out: Inhibition values (IC50) mTor

Row | IC50 (PI3 Kgamma (PI3 Kg)) | IC50 (PI3K delta (PI3 Kd); Table 6) | Inhibition values (IC50) PI3Ka (PI3Kalpha (PI3Ka)) | IC50 (mTOR; [2]) | IC50 (PI3K delta (PI3 Kd); Table 4) | IC50 [1, 3] | IC50 [1, 4] | IC50 (mTOR; [5]) | Structure (SMILES)
1 | > 10 µM | > 10 µM | D (D >10 μM) | 100 to 1000 nM | – | – | – | – | C[C@H]1COCCN1c1nc(-c2ccc(NC(=O)NC3CC3)cc2)nc2c1CN(CC1CCN(C(=O)OC(C)(C)C)CC1)C2 [Example 128, (S)-tert-butyl 4-((2-(4-(3-cyclopropylureido)phenyl)-4-(3-methylmorpholino)-5H-pyrrolo[3,4-d]pyrimidin-6(7H)-yl)methyl)piperidine-1-carboxylate]
2 | – | > 10 µM | – | < 100 nM | > 10 µM | > 10 µM | > 10 µM | < 100 nM | C[C@H]1COCCN1c1nc(-c2ccc(NC(=O)NC3CC3)cc2)nc2c1CNC2 [Example 3, (S)-1-cyclopropyl-3-(4-(4-(3-methylmorpholino)-6,7-dihydro-5H-pyrrolo[3,4-d]pyrimidin-2-yl)phenyl)urea]
3 | – | > 10 µM | – | < 100 nM | > 10 µM | > 10 µM | > 10 µM | < 100 nM | C[C@@H]1COCCN1c1nc(-c2ccc(NC(=O)NC3CC3)cc2)nc2c1CNC2 [Example 9, (R)-1-cyclopropyl-3-(4-(4-(3-methylmorpholino)-6,7-dihydro-5H-pyrrolo[3,4-d]pyrimidin-2-yl)phenyl)urea]
4 | – | > 10 µM | – | < 100 nM | > 10 µM | > 10 µM | > 10 µM | < 100 nM | CCNC(=O)Nc1ccc(-c2nc3c(c(N4CCOC[C@@H]4C)n2)CNC3)cc1 [Example 7, (S)-1-ethyl-3-(4-(4-(3-methylmorpholino)-6,7-dihydro-5H-pyrrolo[3,4-d]pyrimidin-2-yl)phenyl)urea]
5 | 1 to 10 µM | – | – | 100 to 1000 nM | – | > 10 µM | > 10 µM | 100 to 1000 nM | C[C@H]1COCCN1c1nc(-c2ccc(NC(=O)NCCN(C)C)cc2)nc2c1CN(C)C2 [Example 54, (S)-1-(2-(dimethylamino)ethyl)-3-(4-(6-methyl-4-(3-methylmorpholino)-6,7-dihydro-5H-pyrrolo[3,4-d]pyrimidin-2-yl)phenyl)urea]
6 | – | 1 to 10 µM | – | 100 to 1000 nM | 1 to 10 µM | > 10 µM | > 10 µM | 100 to 1000 nM | C[C@H]1COCCN1c1nc(-c2ccc(NC(N)=O)cc2)nc2c1CN(C=O)C2 [Example 6, (S)-1-(4-(6-formyl-4-(3-methylmorpholino)-6,7-dihydro-5H-pyrrolo[3,4-d]pyrimidin-2-yl)phenyl)urea]
7 | – | – | – | 100 to 1000 nM | – | > 10 µM | > 10 µM | 100 to 1000 nM | COCCCNC(=O)Nc1ccc(-c2nc3c(c(N4CCOC[C@@H]4C)n2)CN(C)C3)cc1 [Example 53, (S)-1-(3-methoxypropyl)-3-(4-(6-methyl-4-(3-methylmorpholino)-6,7-dihydro-5H-pyrrolo[3,4-d]pyrimidin-2-yl)phenyl)urea]
8 | – | – | – | < 100 nM | – | > 10 µM | > 10 µM | < 100 nM | C[C@H]1COCCN1c1nc(-c2ccc(NC(=O)NCCCO)cc2)nc2c1CN(C)C2 [Example 51, (S)-1-(3-hydroxypropyl)-3-(4-(6-methyl-4-(3-methylmorpholino)-6,7-dihydro-5H-pyrrolo[3,4-d]pyrimidin-2-yl)phenyl)urea]
9 | – | > 10 µM | – | 1000 to 10000 nM | > 10 µM | > 10 µM | > 10 µM | 100 to 1000 nM | CCNC(=O)Nc1ccc(-c2nc3c(c(N4CCOC[C@@H]4C)n2)CCN(Cc2ccc(F)cc2)C3)cc1 [Example 31, (S)-1-ethyl-3-(4-(7-(4-fluorobenzyl)-4-(3-methylmorpholino)-5,6,7,8-tetrahydropyrido[3,4-d]pyrimidin-2-yl)phenyl)urea]
10 | – | 1 to 10 µM | – | < 100 nM | 1 to 10 µM | > 10 µM | > 10 µM | < 100 nM | CNC(=O)Nc1ccc(-c2nc3c(c(N4CCOC[C@@H]4C)n2)CNC3)cc1 [Example 4, (S)-1-methyl-3-(4-(4-(3-methylmorpholino)-6,7-dihydro-5H-pyrrolo[3,4-d]pyrimidin-2-yl)phenyl)urea]
11 | – | > 10 µM | – | 100 to 1000 nM | > 10 µM | > 10 µM | > 10 µM | 100 to 1000 nM | CNC(=O)Nc1ccc(-c2nc3c(c(N4CCOC[C@@H]4C)n2)CNCC3)cc1 [Example 10, (S)-1-methyl-3-(4-(4-(3-methylmorpholino)-5,6,7,8-tetrahydropyrido[4,3-d]pyrimidin-2-yl)phenyl)urea]
12 | – | 1 to 10 µM | – | – | 1 to 10 µM | > 10 µM | > 10 µM | – | CCNC(=O)Nc1ccc(-c2nc3c(c(N4CCOCC4)n2)CNC3)cc1 [Example 14, 1-ethyl-3-(4-(4-morpholino-6,7-dihydro-5H-pyrrolo[3,4-d]pyrimidin-2-yl)phenyl)urea]
